Measured values reported in patent publication US20100022491A1, “4-HYDROXY-2-OXO-2,3-DIHYDRO-1,3-BENZOTHIAZOL-7YL COMPOUNDS FOR MODULATION OF B2-ADRENORECEPTOR ACTIVITY” (ASTRAZENECA AB, priority 2006, published 2010).
Counter-ions that a name gives are not always drawn.

What was measured:
[1] = target: T1, recombinant human α1D receptor (Homo sapiens, UniProt P25100); experiment: Adrenergic α1D selectivity binding assay ([3H]-prazosin); conditions: inhibition of [3H]-prazosin (0.3 nM) binding, HEK293 membranes; read-out: α1 bind pIC50 (converted)
T1 construct: expressed in transfected cells; host or cells: HEK293
T1 sequence (P25100 1-572): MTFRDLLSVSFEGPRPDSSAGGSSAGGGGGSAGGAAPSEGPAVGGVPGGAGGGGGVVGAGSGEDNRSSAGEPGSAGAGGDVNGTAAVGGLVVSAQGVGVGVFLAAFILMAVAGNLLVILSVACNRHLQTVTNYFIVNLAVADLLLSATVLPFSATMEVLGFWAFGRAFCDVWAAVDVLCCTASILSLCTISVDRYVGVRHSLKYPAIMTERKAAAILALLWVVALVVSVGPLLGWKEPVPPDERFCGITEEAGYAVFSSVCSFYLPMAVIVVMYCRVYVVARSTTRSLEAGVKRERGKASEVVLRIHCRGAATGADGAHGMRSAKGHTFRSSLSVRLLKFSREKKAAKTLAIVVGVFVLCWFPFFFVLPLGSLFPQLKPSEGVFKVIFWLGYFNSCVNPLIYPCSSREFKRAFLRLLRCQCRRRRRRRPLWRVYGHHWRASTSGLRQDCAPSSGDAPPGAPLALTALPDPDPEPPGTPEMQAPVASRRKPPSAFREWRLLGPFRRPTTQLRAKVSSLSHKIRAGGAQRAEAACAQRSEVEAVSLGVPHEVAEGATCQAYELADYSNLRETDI
Outline: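 HEK293 membranes with recombinant human α1D receptor incubated 2 h at room temperature with 0.3 nM [3H]-prazosin and compound in 50 mM HEPES, 1 mM EDTA, 0.1% gelatin, pH 7.4; BMY7378 (10 μM) defined non-specific binding. Filter-bound radioactivity counted; pIC50 from four-parameter logistic fit.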

[2] = target: T2, recombinant human Dopamine Subtype D2s receptors (Homo sapiens, UniProt P14416); experiment: Dopamine D2 selectivity binding assay ([3H]-spiperone); conditions: inhibition of [3H]-spiperone (0.16 nM) binding; read-out: D2 bind pIC50 (converted)
T2 construct: purchased Perkin Elmer
Outline: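 Recombinant human D2s membranes incubated 2 h at room temperature with 0.16 nM [3H]-spiperone in HEPES/EDTA/NaCl/gelatin buffer, pH 7.4; 10 μM haloperidol defined non-specific binding. Filter-bound radioactivity counted after cold washes. pIC50 from 4-parameter logistic fit of NSB-corrected specific binding.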

T2 sequence (P14416 1-414 isoform P14416-2): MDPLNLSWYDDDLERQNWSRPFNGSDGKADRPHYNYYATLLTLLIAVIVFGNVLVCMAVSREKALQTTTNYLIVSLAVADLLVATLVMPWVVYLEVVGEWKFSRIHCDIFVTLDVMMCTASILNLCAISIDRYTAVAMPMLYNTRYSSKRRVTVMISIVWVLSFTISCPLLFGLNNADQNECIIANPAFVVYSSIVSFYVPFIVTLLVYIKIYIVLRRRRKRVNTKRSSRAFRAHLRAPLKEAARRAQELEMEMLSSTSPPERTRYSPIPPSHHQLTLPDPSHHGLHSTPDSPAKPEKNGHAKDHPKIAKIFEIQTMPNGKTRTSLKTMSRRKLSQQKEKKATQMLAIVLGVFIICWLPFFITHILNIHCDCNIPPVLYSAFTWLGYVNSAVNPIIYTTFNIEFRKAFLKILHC

SMILES | IC50 [1] [nM] | IC50 [2] [nM]
O=C(CCNCCc1cccc(F)c1)N(CCNCCc1ccc(O)c2[nH]c(=O)sc12)CC12CC3CC(CC(C3)C1)C2 [Example 60, N^1-(1-Adamantylmethyl)-N^3-[2-(3-fluorophenyl)ethyl]-N^1-(2-{[2-(4-hydroxy-2-oxo-2,3-dihydro-1,3-benzothiazol-7-yl)ethyl]amino}ethyl)-β-alaninamide bis-trifluoroacetic acid salt] | 316 | 794
O=C(CCNCCc1cccc(C(F)(F)F)c1)N(CCNCCc1ccc(O)c2[nH]c(=O)sc12)C1CCCCCC1 [Example 82, N^1-Cycloheptyl-N^1-(2-{[2-(4-hydroxy-2-oxo-2,3-dihydro-1,3-benzothiazol-7-yl)ethyl]amino}ethyl)-N^3-{2-[3-(trifluoromethyl)phenyl]ethyl}-β-alaninamide bis-trifluoroacetic acid salt] | 251 | 50.1
O=C(CCNCCc1cccc(Cl)c1)N(CCNCCc1ccc(O)c2[nH]c(=O)sc12)C1CCCC1 [Example 30, N^3-[2-(3-Chlorophenyl)ethyl]-N-cyclopentyl-N-(2-{[2-(4-hydroxy-2-oxo-2,3-dihydro-1,3-benzothiazol-7-yl)ethyl]amino}ethyl)-β-alaninamide bis-trifluoroacetic acid salt] | 200 | 316
O=C(CCNCCc1cccc(Cl)c1)N(CCNCCc1ccc(O)c2[nH]c(=O)sc12)C1CCCCCC1 [Example 50, N^3-[2-(3-Chlorophenyl)ethyl]-N^1-cycloheptyl-N^1-(2-{[2-(4-hydroxy-2-oxo-2,3-dihydro-1,3-benzothiazol-7-yl)ethyl]amino}ethyl)-β-alaninamide bis-trifluoroacetic acid salt] | 79.4 | 31.6
CCCC[C@@H](C)N(CCNCCc1ccc(O)c2[nH]c(=O)sc12)C(=O)CCNCCc1ccccc1 [Example 101, N-(2-{[2-(4-Hydroxy-2-oxo-2,3-dihydro-1,3-benzothiazol-7-yl)ethyl]amino}ethyl)-N-[(1R)-1-methylpentyl]-N^3-(2-phenylethyl)-β-alaninamide bis-trifluoroacetic acid salt] | 50.1 | 31.6
O=C(CCNCCc1ccc(F)cc1Cl)N(CCNCCc1ccc(O)c2[nH]c(=O)sc12)C1CCCCCC1 [Example 57, N^3-[2-(2-Chloro-4-fluorophenyl)ethyl]-N^1-cycloheptyl-N^1-(2-{[2-(4-hydroxy-2-oxo-2,3-dihydro-1,3-benzothiazol-7-yl)ethyl]amino}ethyl)-β-alaninamide bis-trifluoroacetic acid salt] | 50.1 | 31.6
CC(C)(C)CN(CCNCCc1ccc(O)c2[nH]c(=O)sc12)C(=O)CCNCCc1ccc(Cl)c(Cl)c1 [Example 9, N^3-[2-(3,4-Dichlorophenyl)ethyl]-N-(2,2-dimethylpropyl)-N-(2-{[2-(4-hydroxy-2-oxo-2,3-dihydro-1,3-benzothiazol-7-yl)ethyl]amino}ethyl)-β-alaninamide bis-trifluoroacetic acid salt] | 1000 | 251
O=C(CCNCCc1ccc(Cl)cc1)N(CCNCCc1ccc(O)c2[nH]c(=O)sc12)C1CCOCC1 [Example 26, N^3-[2-(4-Chlorophenyl)ethyl]-N-(2-{[2-(4-hydroxy-2-oxo-2,3-dihydro-1,3-benzothiazol-7-yl)ethyl]amino}ethyl)-N-(tetrahydro-2H-pyran-4-yl)-β-alaninamide bis-trifluoroacetic acid salt] | 501 | 1000
CC(C)(CN(CCNCCc1ccc(O)c2[nH]c(=O)sc12)C(=O)CCNCCc1ccccc1)c1ccccc1 [Example 45, N^1-(2-{[2-(4-Hydroxy-2-oxo-2,3-dihydro-1,3-benzothiazol-7-yl)ethyl]amino}ethyl)-N^1-(2-methyl-2-phenylpropyl)-N^3-(2-phenylethyl)-β-alaninamide bis-trifluoroacetic acid salt] | 200 | 251
O=C(CCNC[C@@H](O)c1ccccc1)N(CCNCCc1ccc(O)c2[nH]c(=O)sc12)C1CCCCC1 [Example 74, N^1-Cyclohexyl-N^1-(2-{[2-(4-hydroxy-2-oxo-2,3-dihydro-1,3-benzothiazol-7-yl)ethyl]amino}ethyl)-N^3-[(2S)-2-hydroxy-2-phenylethyl]-β-alaninamide bis-trifluoroacetic acid salt] | 251 | 501
O=C(CCNCCc1cccc(OC(F)F)c1)N(CCNCCc1ccc(O)c2[nH]c(=O)sc12)C1CCCCCC1 [Example 54, N-Cycloheptyl-N^3-{2-[3-(difluoromethoxy)phenyl]ethyl}-N^1-(2-{[2-(4-hydroxy-2-oxo-2,3-dihydro-1,3-benzothiazol-7-yl)ethyl]amino}ethyl)-β-alaninamide bis-trifluoroacetic acid salt] | 316 | 50.1
O=C(CCNCCc1cc(F)ccc1F)N(CCNCCc1ccc(O)c2[nH]c(=O)sc12)C1CCCCCC1 [Example 83, N^1-Cycloheptyl-N^3-[2-(2,5-difluorophenyl)ethyl]-N^1-(2-{[2-(4-hydroxy-2-oxo-2,3-dihydro-1,3-benzothiazol-7-yl)ethyl]amino}ethyl)-β-alaninamide bis-trifluoroacetic acid salt] | 63.1 | 63.1
CC(C)(CNCCC(=O)N(CCNCCc1ccc(O)c2[nH]c(=O)sc12)C1CCCC1)c1ccccc1 [Example 32, N-cyclopentyl-N-(2-{[2-(4-hydroxy-2-oxo-2,3-dihydro-1,3-benzothiazol-7-yl)ethyl]amino}ethyl)-N^3-(2-methyl-2-phenylpropyl)-β-alaninamide bis-trifluoroacetic acid salt] | 398 | 398
CC(C)(C)CN(CCNCCc1ccc(O)c2[nH]c(=O)sc12)C(=O)CCNCCc1ccccc1 [Example 6, N-(2,2-Dimethylpropyl)-N-(2-{[2-(4-hydroxy-2-oxo-2,3-dihydro-1,3-benzothiazol-7-yl)ethyl]amino}ethyl)-N^3-(2-phenylethyl)-β-alaninamide bis-trifluoroacetic acid salt] | 126 | 200
CC(C)(CO)CN(CCNCCc1ccc(O)c2[nH]c(=O)sc12)C(=O)CCNCCc1cccc(Cl)c1Cl [Example 67, N^3-[2-(2,3-Dichlorophenyl)ethyl]-N^1-(3-hydroxy-2,2-dimethylpropyl)-N^1-(2-{[2-(4-hydroxy-2-oxo-2,3-dihydro-1,3-benzothiazol-7-yl)ethyl]amino}ethyl)-β-alaninamide bis-trifluoroacetic acid salt] | 200 | 158
CC(CN(C(=O)CCNCCc1cccc(F)c1)C1CCCCCC1)NCCc1ccc(O)c2[nH]c(=O)sc12 (stereo not drawn) [Example 104, N-Cycloheptyl-N^3-[2-(3-fluorophenyl)ethyl]-N-(2-{[2-(4-hydroxy-2-oxo-2,3-dihydro-1,3-benzothiazol-7-yl)ethyl]amino}propyl)-β-alaninamide bis-trifluoroacetic acid salt] | 100 | 63.1
O=C(CCNCCc1ccccc1Cl)N(CCNCCc1ccc(O)c2[nH]c(=O)sc12)C1CCCC1 [Example 29, N^3-[2-(2-Chlorophenyl)ethyl]-N-cyclopentyl-N-(2-{[2-(4-hydroxy-2-oxo-2,3-dihydro-1,3-benzothiazol-7-yl)ethyl]amino}ethyl)-β-alaninamide bis-trifluoroacetic acid salt] | 100 | 251
